From PubChem BioAssay (NCI)
Where “and” joins values, the source holds several entries; their conditions need not be identical. Identical values can stand only once.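 Results reflect a 48-hour exposure of cells in 96-well plates to compound at five concentrations. Here, GI50 denotes the concentration required for 50% inhibition of growth. TGI marks complete inhibition of growth.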

Columns and labels:
Assay in all cases: NCI tumour cell line growth inhibition, 48 h
NCI-H460 lung = test system: NCI-H460 lung
SK-MEL-5 melanoma = test system: SK-MEL-5 melanoma
KM12 colon = test system: KM12 colon
MOLT-4 leukemia = test system: MOLT-4 leukemia
MCF7 breast = test system: MCF7 breast
HCT-15 colon = test system: HCT-15 colon
OVCAR-8 ovarian = test system: OVCAR-8 ovarian
PC-3 prostate = test system: PC-3 prostate
U251 CNS = test system: U251 CNS
NCI-H226 lung = test system: NCI-H226 lung
BT-549 breast = test system: BT-549 breast

Compound	TGI (NCI-H460 lung) [µM]	TGI (SK-MEL-5 melanoma) [µM]	TGI (KM12 colon)	TGI (MOLT-4 leukemia) [µM]	TGI (MCF7 breast)	TGI (HCT-15 colon)	TGI (OVCAR-8 ovarian)	TGI (PC-3 prostate) [µM]	TGI (U251 CNS)	TGI (NCI-H226 lung)	TGI (BT-549 breast) [µM]	GI50 (KM12 colon) [µM]	GI50 (MOLT-4 leukemia) [µM]	GI50 (MCF7 breast) [µM]	GI50 (HCT-15 colon) [µM]	GI50 (NCI-H226 lung) [µM]	GI50 (OVCAR-8 ovarian) [µM]	GI50 (U251 CNS) [µM]
CCOC(=O)c1ccc(NC(=O)O/N=C(/Cl)CCl)cc1	> 100	> 100	> 100 µM	> 100	76 µM	> 100 µM	> 100 µM	> 100	> 100 µM	–	–	–	–	–	–	–	–	–
O=C1NC(=S)NNC12c1ccccc1-c1ccccc12	> 10	> 10	> 10 µM	> 10	> 10 µM	> 10 µM	> 10 µM	–	> 10 µM	> 10 µM	> 10	–	–	–	–	–	–	–
O=C(NC(CO)Cc1ccc(Oc2cc(CC(CO)NC(=O)OCc3ccccc3)ccc2OC(=O)OCc2ccccc2)cc1)OCc1ccccc1 (stereo not given)	38.9	–	50.4 µM	22.4	26.8 µM	> 100 µM	40.6 µM	32.7	–	40.7 µM	38.7	–	–	–	–	–	–	–
O=C(NCCCN(CCCCN(CCCNC(=O)C(F)(F)F)CCCc1ccccc1)CCCc1ccccc1)C(F)(F)F	3.27	3.43	3.65 µM	4.48	3.05 µM	2.98 µM	3.77 µM	–	3.56 µM	27 µM	7.34	–	–	–	–	–	–	–
CN(CCN(C)C(=S)NN)C(=S)NN	> 100	> 100	> 100 µM	> 100	–	–	–	> 100	> 100 µM	–	> 100	–	–	–	–	–	–	–
CN(C)/C=N/n1c2ccccc2c2ccccc21	> 100	> 100	> 100 µM	> 100	> 100 µM	> 100 µM	> 100 µM	> 100	> 100 µM	> 100 µM	–	–	–	–	–	–	–	–
CC(=C\c1ccccc1)/C=C(\C#N)C(N)=O	> 10	> 10	> 10 µM	–	> 10 µM	> 10 µM	> 10 µM	> 10	> 10 µM	> 10 µM	–	–	–	–	–	–	–	–
O=C1/C(=C/c2ccccc2)NC(=S)N1CN1CCOCC1	–	> 100	> 100 µM	> 100	> 100 µM	> 100 µM	> 100 µM	> 100	> 100 µM	> 100 µM	–	–	–	–	–	–	–	–
COc1ccc(/C=N/n2c(-c3ccccc3)n[nH]c2=O)cc1	> 100	–	> 100 µM	> 100	> 100 µM	> 100 µM	> 100 µM	> 100	> 100 µM	> 100 µM	> 100	–	–	–	–	–	–	–
O=C(CC(=O)c1ccccc1)CC(O)(c1ccccc1)c1ccccc1	16.3	13.7	21.9 µM	42.8	–	23 µM	20.5 µM	–	14.9 µM	–	–	–	–	–	–	–	–	–
CN1CCN(CN2C(=O)C3C4C=CC(C3C2=O)C2C(=O)N(CN3CCN(C)CC3)C(=O)C42)CC1 (stereo not given)	> 93.6	–	> 100 µM	97.1	72.8 µM	> 100 µM	> 100 µM	> 100	> 100 µM	> 100 µM	> 100	–	–	–	–	–	–	–
CC(=O)Nc1ccc(-c2nc3ccccc3s2)cc1	> 100	> 100	> 100 µM	> 100	> 100 µM	> 100 µM	> 100 µM	> 100	92.6 µM	> 100 µM	–	–	–	–	–	–	–	–
CC(C)C1=C(Cc2ccccc2)C(=O)O/C1=C\c1cc(Cl)c(O)c(Cl)c1	41.2	34.5	35.1 µM	60.7	83.4 µM	39.7 µM	42.4 µM	31.1	31.8 µM	39.5 µM	–	–	–	–	–	–	–	–
CC12CCC3C(CCC4=CC(O)CCC43C=O)C1(O)CCC2c1ccc(=O)oc1 (stereo not given)	0.0131	0.0201	0.0935 µM and 0.0832 µM	0.0401	0.0209 µM and 0.0721 µM	0.107 µM and 0.0622 µM	0.0532 µM and 0.0526 µM	–	0.0292 µM and 0.064 µM	0.0831 µM and 0.21 µM	–	0.05	0.0129	0.00403	0.0125	0.0866	0.05	0.05
COc1cc2c(cc1O)C1C(O)C(O)C=C3CCN(C2)C31 (stereo not given)	10.1	2.95	11 µM	12.2	–	25.2 µM	9.14 µM	–	24.2 µM	7.07 µM	–	–	–	–	–	–	–	–
CCCC(O)C(NC(=O)CCl)C(=O)O (stereo not given)	> 100	> 100	> 100 µM	> 100	> 100 µM	> 100 µM	> 100 µM	–	> 100 µM	> 100 µM	–	–	–	–	–	–	–	–
CCOP(=O)(O)C(C)(C)NC	> 100	> 100	> 100 µM	> 100	–	> 100 µM	> 100 µM	> 100	> 100 µM	> 100 µM	–	–	–	–	–	–	–	–

Compound	TGI (NCI-H460 lung) [µM]	TGI (SK-MEL-5 melanoma) [µM]	TGI (KM12 colon)	TGI (MOLT-4 leukemia) [µM]	TGI (MCF7 breast)	TGI (HCT-15 colon)	TGI (OVCAR-8 ovarian)	TGI (PC-3 prostate) [µM]	TGI (U251 CNS)	TGI (NCI-H226 lung)	TGI (BT-549 breast) [µM]	GI50 (KM12 colon) [µM]	GI50 (MOLT-4 leukemia) [µM]	GI50 (MCF7 breast) [µM]	GI50 (HCT-15 colon) [µM]	GI50 (NCI-H226 lung) [µM]	GI50 (OVCAR-8 ovarian) [µM]	GI50 (U251 CNS) [µM]
COc1ccc(OC)c(C2Cc3cnc4nc(N)nc(N)c4c3C2)c1 (stereo not given)	73.6	> 100	55.7 µM	87.5	> 100 µM	> 100 µM	96.9 µM	69.7	47.3 µM	–	52.6	–	–	–	–	–	–	–
O=[N+]([O-])c1cc2c(c3nonc13)OCCCCO2	14	21.2	20.7 µM	9.79	24.2 µM	13.7 µM	14.2 µM	41.7	45.5 µM	28.2 µM	–	–	–	–	–	–	–	–
C#CCN(CC#C)C(=O)C(=O)c1c[nH]c2ccc(OC)cc12	29.7	31.1	30.6 µM	–	34.7 µM	29.5 µM	60.5 µM	–	27.6 µM	38.7 µM	–	–	–	–	–	–	–	–
COc1ccc(C(OC(C)=O)C2C(=C(C#N)C#N)c3ccccc3C2=C(C#N)C#N)cc1 (stereo not given)	> 100	> 100	> 100 µM	99.8	> 100 µM	> 100 µM	> 100 µM	54.3	> 100 µM	> 100 µM	–	–	–	–	–	–	–	–
COc1cc(/C=C/C(=O)O)ccc1C(=O)OCc1ccccc1	> 100	> 100	> 100 µM	> 100	> 100 µM	> 100 µM	> 100 µM	–	> 100 µM	> 100 µM	–	–	–	–	–	–	–	–
CCc1nc2ccc(N=NN(C)C)cc2[nH]1	> 100	> 100	> 100 µM	> 100	–	> 100 µM	> 100 µM	> 100	> 100 µM	> 100 µM	> 100	–	–	–	–	–	–	–
CN1C(=O)C(CC=O)(C(C)(C)C)c2ccccc21 (stereo not given)	> 100	> 100	> 100 µM	> 100	> 100 µM	> 100 µM	–	> 100	> 100 µM	–	–	–	–	–	–	–	–	–
CC(C)=CCc1c(O)ccc2ccc(=O)oc12	> 100	23.5	> 100 µM	84.2	> 100 µM	> 100 µM	> 100 µM	–	> 100 µM	> 100 µM	–	–	–	–	–	–	–	–
CC1(C)OC2C(O)CN3CCS[C@H]3C2O1 (stereo not given in full)	> 100	> 100	> 100 µM	> 100	–	> 100 µM	> 100 µM	> 100	> 100 µM	> 100 µM	> 100	–	–	–	–	–	–	–
Cc1c(O)c(C)c2c(C)cn(C(=O)C(C)(C)C)c2c1C	63.8	27.8	27.2 µM	55.2	20.3 µM	40.6 µM	34.7 µM	38.5	69 µM	33.5 µM	–	–	–	–	–	–	–	–
CC(=O)Nc1ccc2cc(C)c(=O)[nH]c2n1	> 100	> 100	> 100 µM	> 100	–	> 100 µM	> 100 µM	> 100	> 100 µM	–	> 100	–	–	–	–	–	–	–
CC(CCC#N)(CCC#N)C(=O)CC(O)(C(F)(F)F)C(F)(F)F	39	28.5	34.2 µM	2.8	21.2 µM	10.6 µM	16.6 µM	28.4	33.2 µM	45.3 µM	–	–	–	–	–	–	–	–
CC(C)C[C@H]1[C@@H](OCc2ccccc2)COS(=O)N1[C@H](C)c1ccccc1 (stereo not given in full)	47.8	23.3	40.9 µM	51.3	–	> 100 µM	> 100 µM	> 100	36.5 µM	36 µM	> 100	–	–	–	–	–	–	–
C[C@@H]1CCC2[C@@H](C)[C@@H](OCCO[C@H]3OC4O[C@@]5(C)CCC6[C@H](C)CCC([C@H]3C)[C@@]46OO5)OC3O[C@@]4(C)CCC1[C@]32OO4 (stereo not given in full)	> 100	> 39.8	> 100 µM	> 100	> 42.3 µM	> 100 µM	> 78.2 µM	> 95.8	> 100 µM	> 100 µM	–	–	–	–	–	–	–	–
S=c1[nH]n2c(COc3cccc(OCc4nnc5sc(=S)[nH]n45)c3)nnc2s1	> 100	–	> 100 µM	> 100	> 100 µM	> 100 µM	> 100 µM	> 100	> 100 µM	> 100 µM	> 100	–	–	–	–	–	–	–
O=C(NS(=O)(=O)OCC(Cl)(Cl)Cl)SCCC(F)(F)C(F)(F)C(F)(F)C(F)(F)C(F)(F)C(F)(F)F	41.5	–	43.5 µM	80	40.6 µM	47.4 µM	> 100 µM	32.4	51.8 µM	70.7 µM	> 100	–	–	–	–	–	–	–
